Experiments:
Assay type in all cases: biochemical
Collagenase = target: T1, Collagenase (Homo sapiens, UniProt P03956); experiment: MMP inhibition by particle concentration fluorescence technique (collagenase); conditions: pH 7.5; 15 min enzyme preincubation; substrate 1-3 h at room temperature; read-out: MMP Inhibition Constants, Collagenase Ki
T1 sequence (P03956 100-469): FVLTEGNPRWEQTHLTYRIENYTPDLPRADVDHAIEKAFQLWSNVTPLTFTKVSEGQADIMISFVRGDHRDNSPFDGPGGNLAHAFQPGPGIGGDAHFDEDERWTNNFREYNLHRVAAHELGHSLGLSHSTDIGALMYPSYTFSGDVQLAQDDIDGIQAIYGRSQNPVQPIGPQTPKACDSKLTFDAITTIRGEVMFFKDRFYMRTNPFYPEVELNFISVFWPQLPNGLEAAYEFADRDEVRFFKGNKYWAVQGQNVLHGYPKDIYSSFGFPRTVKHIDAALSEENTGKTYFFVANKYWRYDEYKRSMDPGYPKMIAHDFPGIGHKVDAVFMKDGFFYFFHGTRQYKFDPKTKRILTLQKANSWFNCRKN
Method in brief: (§1)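 Compound serially diluted two-fold in 50 mM Tris-HCl pH 7.5, 150 mM NaCl, preincubated 15 min with activated enzyme at room temperature. Fluorescein/biotin-tagged substrate then added for 1-3 hours in the dark. Intact substrate captured on avidin-coated particles; fluorescence signal indicates inhibition.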

Stromelysin = Stromelysin (Homo sapiens, UniProt P08254); experiment: MMP inhibition by particle concentration fluorescence technique (stromelysin); conditions: pH 7.5; 15 min enzyme preincubation; substrate 1-3 h at room temperature; read-out: MMP Inhibition Constants, Stromelysin Ki
Method in brief: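 Fluorescein- and biotin-labelled substrate captured on avidin particles after reaction; intact, uncleaved substrate retains fluorescence, so signal rises with inhibition. Activated enzyme incubated with two-fold serial compound dilutions 15 minutes at room temperature.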

Gelatinase = experiment: MMP inhibition by particle concentration fluorescence technique (gelatinase); conditions: pH 7.5; 15 min enzyme preincubation; substrate 1-3 h at room temperature; read-out: MMP Inhibition Constants, Gelatinase Ki
Method in brief: as §1

Stromelysin, sequence (P08254 100-477): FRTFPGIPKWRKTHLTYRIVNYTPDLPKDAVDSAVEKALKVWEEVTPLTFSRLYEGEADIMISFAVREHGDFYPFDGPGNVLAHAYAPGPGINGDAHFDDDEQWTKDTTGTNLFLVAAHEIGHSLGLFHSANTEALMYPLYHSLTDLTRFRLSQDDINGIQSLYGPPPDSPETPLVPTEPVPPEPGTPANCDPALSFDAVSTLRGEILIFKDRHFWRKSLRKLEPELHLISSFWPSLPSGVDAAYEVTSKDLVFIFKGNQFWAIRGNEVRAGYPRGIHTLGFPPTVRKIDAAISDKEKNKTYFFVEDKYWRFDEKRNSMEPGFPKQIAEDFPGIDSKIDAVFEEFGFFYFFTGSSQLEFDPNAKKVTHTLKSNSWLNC

Row | Ki (Collagenase) | Ki (Stromelysin) | Ki (Gelatinase) | SMILES
1 | 85 nM | 138 nM | 61 nM | CC(C)C[C@@H](C(=O)Nc1ccccn1)N1CC[C@](CC(=O)NO)(CC(C)C)C1=O [Example 49, [S-(R*,R*)]-N^3 -Hydroxy-α^1,3-bis(2-methylpropyl)-2-oxo-N^1-2-pyridinyl-1,3-pyrrolidinediacetamide]
2 | 18 nM | 19 nM | 12.3 nM | CC(C)C[C@@]1(CC(=O)NO)CCN([C@H](C(=O)Nc2ccc(F)cc2)C2CCCCC2)C1=O [Example 60, [S-(R*,R*)]-α^1 -Cyclohexyl-N^1-(4-fluorophenyl)-N^3-hydroxy-3-(2-methylpropyl)-2-oxo-1,3-pyrrolidinediacetamide]
3 | 14200 nM | 92.4 nM | 2870 nM | CC(C)C[C@@]1([C@@H](CN2C(=O)c3ccccc3C2=O)C(=O)NO)CCN(CCc2ccccc2)C1=O (relative stereo) [Example 16, α-[2-(1,3-Dihydro-1,3-dioxo-2H-isoindol-2-yl)methyl]-N-hydroxy-3-(2-methylpropyl)-2-oxo-1-(2-phenylethyl)-3-pyrrolidineacetamide]
4 | 1900 nM | 649 nM | 1280 nM | CC(C)C[C@@]1([C@@H](CCN2C(=O)c3ccccc3C2=O)C(=O)NO)CCN(Cc2cccc(F)c2)C1=O (relative stereo) [Example 25]
5 | 23.5 nM | 1010 nM | 17 nM | CC(C)C[C@@]1(CC(=O)NO)CCN([C@@H](Cc2ccccc2)C(=O)NCc2ccncc2)C1=O [Example 45, [S-(R*,R*)]-N^3 -Hydroxy-3-(2-methylpropyl)-2-oxo-α^1-(phenylmethyl)-N^1-(4-pyridinylmethyl)-1,3-pyrrolidinediacetamide]

Reference: patent publication US5712300A, “Hydroxamic acid derivatives useful for the treatment of diseases related to connective tissue degradation” (priority 1997, dated 1998)
